Assay results taken from patent US20060276464A1, “Diarylsulfone sulfonamides and use thereof” (Wyeth, priority 2005, published 2006).

What was measured:
SFRP-1 [1] = molecular target: T1, SFRP-1 (Homo sapiens, UniProt Q8N474); test: Fluorescence polarization binding assay (competitive displacement of a probe compound from SFRP-1); conditions: fluorescence anisotropy, 45 nM SFRP-1, 20 nM probe;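 further: test compound competes with a fluorescent probe held by SFRP-1, seen as a drop in probe anisotropy after incubation in darkness, with anisotropy as function of rising compound dose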
T1 sequence (Q8N474 32-314): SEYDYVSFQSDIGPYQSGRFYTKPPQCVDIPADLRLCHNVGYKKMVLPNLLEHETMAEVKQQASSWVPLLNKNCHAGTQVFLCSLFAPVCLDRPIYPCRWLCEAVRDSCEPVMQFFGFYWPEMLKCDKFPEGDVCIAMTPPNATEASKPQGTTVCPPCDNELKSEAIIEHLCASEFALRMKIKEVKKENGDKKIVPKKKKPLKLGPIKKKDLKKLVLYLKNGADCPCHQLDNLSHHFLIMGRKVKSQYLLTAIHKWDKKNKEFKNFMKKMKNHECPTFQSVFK

SFRP-1 [2] = molecular target: T1, SFRP-1; test: Cell-based assay for in vitro measurement of SFRP-1/SARP2 antagonist activity (U2OS cells co-transfected with 16x TCF-tk-Luciferase reporter, Wnt and hSFRP-1); conditions: for fold induction at 10 µM: U2OS, read-out: Fold Induction with SFRP-1, U2OS cells, single dose 10 μM, luciferase reporter, fold induction over SFRP-1 control;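 on all read-outs here: U2OS cells co-transfected with a TCF-tk luciferase reporter, a Wnt vector, hSFRP-1 or empty vector and CMV-βgal, luciferase luminescence read in cell lysates alongside βgal activity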

| IC50 (SFRP-1 [1]) [nM] | fold induction at 10 µM (SFRP-1 [2]) | EC50 (SFRP-1 [2]) [nM] | SMILES |
| --- | --- | --- | --- |
| 900 | 2.2 |  | CCOC(=O)CCN(C)CCNS(=O)(=O)c1cc(S(=O)(=O)c2ccccc2)ccc1C(F)(F)F [Example 907, ethyl N-methyl-N-[2-({[5-(phenylsulfonyl)-2-(trifluoromethyl)phenyl]sulfonyl}amino)ethyl]-β-alaninate] |
| 1000 | 2.3 | 2580 | CCc1ccc(S(=O)(=O)c2ccccc2)cc1S(=O)(=O)NC1CCN(C(=O)OC(C)(C)C)CC1 [Example 909, tert-butyl 4-({[2-ethyl-5-(phenylsulfonyl)phenyl]sulfonyl}amino)piperidine-1-carboxylate] |
| 4000 | 1.9 | 2420 | Cc1cc(C)c(S(=O)(=O)c2ccccc2)cc1S(=O)(=O)NC1CCN(C(=O)OC(C)(C)C)CC1 [Example 911, tert-butyl 4-({[2,4-dimethyl-5-(phenylsulfonyl)phenyl]sulfonyl}amino)piperidine-1-carboxylate] |
| 2100 | 2.4 | 1010 | CC(C)c1ccc(S(=O)(=O)c2ccccc2)cc1S(=O)(=O)NC1CCN(C(=O)OC(C)(C)C)CC1 [Example 912, tert-butyl 4-({[2-isopropyl-5-(phenylsulfonyl)phenyl]sulfonyl}amino)piperidine-1-carboxylate] |
| 3000 | 3.1 | 7010 | O=S(=O)(NCCC1CCCN1)c1cc(S(=O)(=O)c2ccccc2)ccc1C(F)(F)F (stereo not shown) [Example 913, 5-(phenylsulfonyl)-N-(2-pyrrolidin-2-ylethyl)-2-(trifluoromethyl)benzenesulfonamide] |
| 80 | 4.5 | 541 | O=S(=O)(NC1CCN(S(=O)(=O)c2ccc(O)cc2)CC1)c1cc(S(=O)(=O)c2ccccc2)ccc1C(F)(F)F [Example 914, N-{1-[(4-hydroxyphenyl)sulfonyl]piperidin-4-yl}-5-(phenylsulfonyl)-2-(trifluoromethyl)benzenesulfonamide] |
| 4000 | 1.6 | 2980 | O=C(O)CN1CCCC1CCNS(=O)(=O)c1cc(S(=O)(=O)c2ccccc2)ccc1C(F)(F)F (stereo not shown) [Example 918, {2-[2-({[5-(phenylsulfonyl)-2-(trifluoromethyl)phenyl]sulfonyl}amino)ethyl]pyrrolidin-1-yl}acetic acid] |
| 1400 | 1.6 | 5260 | O=C(O)CCC(=O)N1CCCC1CCNS(=O)(=O)c1cc(S(=O)(=O)c2ccccc2)ccc1C(F)(F)F (stereo not shown) [Example 919, 4-oxo-4-{2-[2-({[5-(phenylsulfonyl)-2-(trifluoromethyl)phenyl]sulfonyl}amino)ethyl]pyrrolidin-1-yl}butanoic acid] |
| 280 | 2.2 | 1810 | O=C(O)c1cccc(S(=O)(=O)N2CCCC2CCNS(=O)(=O)c2cc(S(=O)(=O)c3ccccc3)ccc2C(F)(F)F)c1 (stereo not shown) [Example 920, 3-({2-[2-({[5-(phenylsulfonyl)-2-(trifluoromethyl)phenyl]sulfonyl}amino)ethyl]pyrrolidin-1-yl)sulfonyl)benzoic acid] |
| 4000 | 2.5 | 2360 | CCc1ccc(S(=O)(=O)c2ccccc2)cc1S(=O)(=O)NC1CCNCC1 [Example 921, 2-ethyl-5-(phenylsulfonyl)-N-piperidin-4-ylbenzenesulfonamide] |
| 10000 | 2.4 | 1870 | Cc1cc(C)c(S(=O)(=O)c2ccccc2)cc1S(=O)(=O)NC1CCNCC1 [Example 923, 2,4-dimethyl-5-(phenylsulfonyl)-N-piperidin-4-ylbenzenesulfonamide] |
| 1800 | 2.5 | 1920 | CC(C)c1ccc(S(=O)(=O)c2ccccc2)cc1S(=O)(=O)NC1CCNCC1 [Example 924, 2-isopropyl-5-(phenylsulfonyl)-N-piperidin-4-ylbenzenesulfonamide] |
| 8000 | 3 | 2150 | CCCc1ccc(S(=O)(=O)c2ccccc2)cc1S(=O)(=O)NC1CCNCC1 [Example 925, 5-(phenylsulfonyl)-N-piperidin-4-yl-2-propylbenzenesulfonamide] |
| 500 | 3.6 | 1360 | CN(CCNS(=O)(=O)c1cc(S(=O)(=O)c2ccccc2)ccc1C(F)(F)F)C(=O)N[C@H]1CCN(C(=O)OC(C)(C)C)C1 [Example 926, tert-butyl (3S)-3-[({methyl[2-({[5-(phenylsulfonyl)-2-(trifluoromethyl)phenyl]sulfonyl}amino)ethyl]amino}carbonyl)amino]pyrrolidine-1-carboxylate] |
| 2400 | 2.1 | 4510 | CN(CCCNS(=O)(=O)c1cc(S(=O)(=O)c2ccccc2)ccc1C(F)(F)F)C(=O)OC(C)(C)C [Example 927, tert-butyl methyl[3-({[5-(phenylsulfonyl)-2-(trifluoromethyl)phenyl]sulfonyl}amino)propyl]carbamate] |
| 180 | 3.9 | 380 | Nc1ccc(CCNS(=O)(=O)c2cc(S(=O)(=O)c3ccccc3)ccc2C(F)(F)F)cc1 [Example 928, N-[2-(4-aminophenyl)ethyl]-5-(phenylsulfonyl)-2-(trifluoromethyl)benzenesulfonamide] |
| 4000 | 2.9 | 3320 | CNCCCNS(=O)(=O)c1cc(S(=O)(=O)c2ccccc2)ccc1C(F)(F)F [Example 929, N-[3-(methylamino)propyl]-5-(phenylsulfonyl)-2-(trifluoromethyl)benzenesulfonamide] |
| 4000 | 2.9 | 1300 | CC(C)(C)OC(=O)N1CCC(CCNS(=O)(=O)c2cc(S(=O)(=O)c3ccccc3)ccc2C(F)(F)F)CC1 [Example 931, tert-butyl 4-[2-({[5-(phenylsulfonyl)-2-(trifluoromethyl)phenyl]sulfonyl}amino)ethyl]piperidine-1-carboxylate] |
| 3000 | 2.8 | 1860 | COC(=O)C1CCCC(NS(=O)(=O)c2cc(S(=O)(=O)c3ccccc3)ccc2C(C)C)C1 (stereo not shown) [Example 932, methyl 3-({[2-isopropyl-5-(phenylsulfonyl)phenyl]sulfonyl}amino)cyclohexanecarboxylate] |
| 6000 | 2.5 | 1740 | COC(=O)C1CCC(NS(=O)(=O)c2cc(S(=O)(=O)c3ccccc3)ccc2C(C)C)CC1 (stereo not shown) [Example 933, methyl 4-({[2-isopropyl-5-(phenylsulfonyl)phenyl]sulfonyl}amino)cyclohexanecarboxylate] |
| 2800 | 2.3 | 2730 | COC(=O)[C@H]1CC[C@H](CNS(=O)(=O)c2cc(S(=O)(=O)c3ccccc3)ccc2C(C)C)CC1 [Example 934, methyl trans-4-[({[2-isopropyl-5-(phenylsulfonyl)phenyl]sulfonyl}amino)methyl]cyclohexanecarboxylate] |
| 7000 | 2.5 | 2530 | CC(C)c1ccc(S(=O)(=O)c2ccccc2)cc1S(=O)(=O)NC1CC(C)(C)NC(C)(C)C1 [Example 935, 2-isopropyl-5-(phenylsulfonyl)-N-(2,2,6,6-tetramethylpiperidin-4-yl)benzenesulfonamide] |
| 3000 | 2.7 | 1820 | CC(C)c1ccc(S(=O)(=O)c2ccccc2)cc1S(=O)(=O)NCc1ccncc1 [Example 936, 2-isopropyl-5-(phenylsulfonyl)-N-(pyridin-4-ylmethyl)benzenesulfonamide] |
| 1700 | 2.8 | 2300 | CN(CCNS(=O)(=O)c1cc(S(=O)(=O)c2ccccc2)ccc1C(F)(F)F)C(=O)N[C@H]1CCNC1 [Example 937, N-[2-(methyl{[(3S)-pyrrolidin-3-ylamino]carbonyl}amino)ethyl]-5-(phenylsulfonyl)-2-(trifluoromethyl)benzenesulfonamide] |
| 900 | 4.4 | 850 | COC(=O)c1cccc(S(=O)(=O)N2CCC(NS(=O)(=O)c3cc(S(=O)(=O)c4ccccc4)ccc3C(F)(F)F)CC2)c1 [Example 938, methyl 3-{[4-({[5-(phenylsulfonyl)-2-(trifluoromethyl)phenyl]sulfonyl}amino)piperidin-1-yl]sulfonyl}benzoate] |
| 700 | 2.2 |  | COc1ccc(CCNS(=O)(=O)c2cc(S(=O)(=O)c3ccccc3)ccc2C(F)(F)F)cc1 [Example 939, N-[2-(4-methoxyphenyl)ethyl]-5-(phenylsulfonyl)-2-(trifluoromethyl)benzenesulfonamide] |
| 1100 | 4.1 | 2280 | O=S(=O)(NCCC1CCNCC1)c1cc(S(=O)(=O)c2ccccc2)ccc1C(F)(F)F [Example 940, 5-(phenylsulfonyl)-N-(2-piperidin-4-ylethyl)-2-(trifluoromethyl)benzenesulfonamide] |
| 700 | 3.2 | 1340 | O=C(O)CN1CCC(CNS(=O)(=O)c2cc(S(=O)(=O)c3ccccc3)ccc2C(F)(F)F)CC1 [Example 941, {4-[({[5-(phenylsulfonyl)-2-(trifluoromethyl)phenyl]sulfonyl}amino)methyl]piperidin-1-yl}acetic acid] |
